What was measured:
[1] = system: electron transport chain at complex III; details: beef heart mitochondrial respiration assay; cited from earlier work
[2] = simulated sunlight photostability test, thin films on glass slides; assay type: physicochemical; details: for T50 glass slides / time for 50% of parent compound being lost: thin films on glass slides
[3] = target: cytochrome bc1 complex (beef heart mitochondria, NADH oxidase) (Bos taurus, UniProt P00157+P13272); test: beef heart mitochondrial NADH oxidase assay; assay type: biochemical; details: for IC50, NADH oxidase: beef heart mitochondria, Z-enamide analogues, Table 5
[4] = system: plant pathogens; test: fungicidal activity on plants; assay type: in vivo
[5] = system: Plasmopara viticola (vine downy mildew); test: glasshouse foliar spray test, vine downy mildew; assay type: in vivo
[6] = system: several fungi; details: cited from earlier work

SMILES: CO[C@H]([C@H](C)[C@H](/C=C/c1ccccc1)OC)[C@@H](C)/C=C/C(C)=C/C(N)=O [Compound 10, crocacin C]
- inhibition of the electron transport chain at complex III [1]: not to be active

SMILES: COC(=O)CNC(=O)CCC/C=C\NC(=O)c1ccc(Cc2ccc(Br)cc2)cc1 [Compound 14]
- photostability [2]: greater photostability than the natural product
- T50 glass slides [2]: 12 h

SMILES: CCCCCCOc1ccc(C(=O)N/C=C\CCCC(=O)NCC(=O)OC)cc1 [Compound 13]
- activity in the NADH oxidase / beef heart mitochondrial respiration assay [3]: very good activity
- fungicidal activity on plants [4]: inactive as fungicides
- T50 glass slides [2]: 5 h

SMILES: CO[C@H]([C@H](C)[C@H](/C=C/c1ccccc1)OC)[C@@H](C)/C=C/C(C)=C/C(=O)N/C=C\C/C=C\C(=O)NCC(=O)O [Compound 9, crocacin B]
- inhibition of the electron transport chain at complex III [1]: not to be active

SMILES: COC(=O)COc1ccc2oc(=O)n(Cc3ccc(Cc4ccc(I)cc4)cc3)c2c1 [Compound 19]
- activity on vine downy mildew on plants [5]: no activity

SMILES: CCc1ccc(Oc2ccc(C(=O)N[C@H]3C[C@H]3CCC(=O)NCC(=O)OC)cc2)cc1 [Compound 24]
- activity in the NADH oxidase / beef heart mitochondrial respiration assay [3]: only very weakly active

SMILES: COC(=O)CNC(=O)CCC/C=C\NC(=O)/C=C(C)/C=C/[C@H](C)[C@H](OC)[C@H](C)[C@H](/C=C/c1ccccc1)OC [Compound 11, crocacin D, reference compound]
- inhibition of the electron transport chain at complex III [1]: inhibited the electron transport chain at complex III
- inhibition of growth of fungi in vitro [6]: inhibited the growth of several fungi in vitro
- activity in the NADH oxidase / beef heart mitochondrial respiration assay [3]: slightly more active than crocacin A
- T50 glass slides [2]: 0.6 h
- time for 50% of parent compound being lost [2]: 37 min

SMILES: CCc1ccc(Cc2ccc(Cn3c(=O)oc4ccc(OCC(=O)OC)cc43)cc2)cc1 [Compound 18]
- activity on vine downy mildew on plants [5]: no activity

SMILES: COC(=O)CNC(=O)/C=C\C/C=C\NC(=O)/C=C(C)/C=C/[C@H](C)[C@H](OC)[C@H](C)[C@H](/C=C/c1ccccc1)OC [Compound 8, crocacin A]
- inhibition of the electron transport chain at complex III [1]: inhibited the electron transport chain at complex III
- inhibition of growth of fungi in vitro [6]: inhibited the growth of several fungi in vitro
- time for 50% of parent compound being lost [2]: 7 min

SMILES: CCCCCCCCCCCCC(=O)N/C=C\CCCC(=O)NCC(=O)OC [Compound 12]
- activity in the NADH oxidase / beef heart mitochondrial respiration assay [3]: very active
- fungicidal activity on plants [4]: no fungicidal activity
- photostability [2]: photostability was unexpectedly reduced
- T50 glass slides [2]: 0.1 h

SMILES: CCc1ccc(Cc2ccc(Cn3c(=O)oc4ccc(NCC(=O)OC)cc43)cc2)cc1 [Compound 21]
- IC50, NADH oxidase [3]: Inactive

SMILES: COC(=O)CNC(=O)CCCc1ccccc1NC(=O)CCCCCCCCCc1ccccc1 [Compound 25]
- activity in the NADH oxidase / beef heart mitochondrial respiration assay [3]: completely inactive
- IC50, NADH oxidase [3]: Inactive

SMILES: C/C=C(C)/C=C/C=C/[C@H](OC)[C@@H](C)[C@@H](OC)[C@@H](C)CCc1oc2c(O)c(OC)cc(OC)c2c(=O)c1C [Compound 2, stigmatellin, reference compound]
- activity in the NADH oxidase / beef heart mitochondrial respiration assay [3]: quite active
- fungicidal activity on plants [4]: very little fungicidal activity

SMILES: CCOc1ccc(Cc2ccc(C(=O)N/C=C\CCCC(=O)NCC(=O)OC)cc2)cc1 [Compound 15]
- photostability [2]: greater photostability than the natural product
- T50 glass slides [2]: 20 h

From PMC2784635 (Bioorganic & medicinal chemistry, 2008)
